Assay results from paper PMC11656837, “pH-Responsive Peptide Nanoparticles Deliver Macromolecules to Cells via Endosomal Membrane Nanoporation” (ACS Nano, 2024).

Test system: Chinese Hamster Ovary (CHO) cells
Test: Cytosolic delivery of yellow fluorescent protein (confocal microscopy)
Format: cell-based
Details: 25 μM peptide, 3.5 μM external YFP, 37 °C
Protocol: To validate the dextran delivery experiments, we also delivered two separate fluorescent proteins of ∼27 kDa molecular weight to the cytosol of two different cell lines using C16-D-pHD108 (see Figure 7). HeLa cells were incubated overnight with 10 μM green fluorescent protein (GFP), and Chinese Hamster Ovary (CHO) cells were incubated overnight with 3.5 μM yellow fluorescent protein (YFP), with and without 25 μM C16-D-pHD108. Just before imaging, external GFP and YFP were washed off and replaced with TAMRA-dextran (red) or fluorescent protein mTurquoise (blue), respectively, to mark the cell boundaries and extracellular spaces. […] These cells, especially those incubated with the higher 10 μM concentration of GFP, show endosomes with entrapped FP, just as we observed for dextran delivery. […] The apparent nuclear concentration of GFP in cells incubated with GFP but no peptide is indistinguishable from the background. With an external concentration of 3.5 μM, the YFP concentration delivered to the cell cytosol ranges from 1 to 3 μM, with a median of about 1.2 μM or 35% of the external concentration. The apparent cytosolic concentration of YFP in cells incubated with YFP but no peptide is indistinguishable from the background. We also performed YFP delivery experiments at a 4 h time point, Supplemental Figure S4. […]
For fluorescent protein or fluorescein-(Fab)2 fragment delivery, HeLa cells were incubated at 37 °C overnight in the presence of GFP with and without C16-D-pHD108 and CHO cells were incubated at 37 °C overnight with YFP in the presence and absence of C16-D-pHD108. […] Quantitation of delivered protein was performed by comparing measured intensities from microscopy images of standard protein solutions of known concentrations. […]
E. YFP intensities from the nuclei and cytosol of the cells in panels A,B and C,D. The dotted lines are the intensities of standard reference solution of media only and 3.5 µM YFP measured at the same time under identical conditions. […]

For `CCCCCCCCCCCCCCCC(=O)NCC(=O)N[C@@H](C(=O)NCC(=O)N[C@H](CCC(=O)O)C(=O)N[C@@H](C(=O)N[C@H](CC(C)C)C(=O)N[C@H](Cc1c[nH]cn1)C(=O)N[C@H](CCC(=O)O)C(=O)N[C@H](CC(C)C)C(=O)N[C@H](C)C(=O)N[C@H](CCC(=O)O)C(=O)NCC(=O)N[C@H](CC(C)C)C(=O)N1CCC[C@@H]1C(=O)N[C@H](CCC(=O)O)C(=O)N[C@H](CC(C)C)C(=O)N[C@H](CCC(N)=O)C(=O)N[C@H](CCC(=O)O)C(=O)N[C@H](Cc1c[nH]c2ccccc12)C(=O)N[C@@H](C(=O)N[C@H](Cc1c[nH]cn1)C(=O)N[C@H](C)C(=O)N[C@H](C)C(=O)N[C@H](CCC(N)=O)C(=O)N[C@H](CCC(N)=O)C(=O)N[C@H](CC(C)C)C(N)=O)[C@H](C)CC)C(C)C)[C@H](C)CC` [C16-D-pHD108], the “YFP delivered to cytosol, median as percent of the external solution” value (4 h) was “about 13%”, the “YFP concentration delivered to cell cytosol, median” value (overnight) was “about 1.2 μM” and the “YFP delivered to cytosol, median as percent of the external concentration” value (overnight) was roughly 35%.
